Measured values published in patent US20240390341A1, “METHODS FOR TREATING ADRENAL GLAND TUMORS” (Corcept Therapeutics Incorporated, priority 2023, published 2024).
“Also recorded” adds a separate entry of the source.

Assays:
[1] = test system: cortisol-secreting adrenal adenoma; experiment: CT imaging of adrenal gland tumor size in GRADIENT study patients; type: in vivo, human
Source text: (§1) The following protocol describes the GRADIENT clinical trial, an on-going, randomized, double-blind, placebo-controlled Phase 3 study which focuses on patients with hypercortisolism secondary to adrenal adenoma(s) or hyperplasia (ClinicalTrials.gov Identifier: NCT04308590). This study includes patients with cortisol-secreting adrenal adenomas or hyperplasia associated with DM/IGT (diabetes […] (DM) and/or impaired glucose tolerance (IGT)) and/or uncontrolled systolic hypertension. The study enrolled patients with hypercortisolism due to cortisol secreting adrenal adenomas or hyperplasia. These patients may or may not present the classic clinical manifestations of overt Cushing syndrome (i.e., facial appearance, buffalo hump, striae, etc.). Patients were identified as suffering from cortisol-secreting adrenal gland tumors based on abnormal dexamethasone suppression test (DST) and low ACTH. Patients could receive medications that were commonly used to treat diabetes, hypertension, or dyslipidemia if required. Following screening, those patients meeting study criteria were randomly assigned to receive doses of either placebo or relacorilant for 22 weeks of treatment. Patient follow-up was within 28 days of the last dose. Total patient participation in the study was up to 32 weeks. The GRADIENT study design is illustrated in FIG. 1. Patients discussed herein were participants in the GRADIENT study. […] The starting dose at Baseline was 100 mg relacorilant or matching placebo once daily for 2 weeks, after which the dose was increased to 200 mg. As tolerated, the dose was then increased by 100 mg to 300 mg once daily after 4 weeks, and, as tolerated, the dose was then increased to 400 mg once daily after another 4 weeks. If a dose was not tolerated, dose interruption, dose reduction, and dose re-escalation were allowed. Patients were maintained at a once-daily dose of 400 mg, or at their highest tolerated dose. Dose titrations after 18 weeks were not permitted. Patients who completed the study were permitted to continue relacorilant treatment in an extension study if they have at least 80% adherence with scheduled dosing (by capsule counts), and are expected to maintain clinical benefit from the study drug. Although not expected to regress, adrenal tumors progress very slowly, and rarely progress into overt Cushing syndrome ([…] et al. 2016 Eur J Endocrinol. 175 (2):G1-[…]. doi: 10.1530/EJE-16-0467). Patients receiving placebo continued to receive their previously prescribed medications; thus, although the placebo was not expected to provide additional benefit to those patients receiving placebo, neither was any detriment expected. Relacorilant was supplied as 100 mg capsules for oral dosing. […]

[2] = test system: plasma ACTH, cortisol levels; experiment: Plasma ACTH, cortisol and DST in a GRADIENT study patient; type: in vivo, human; settings: FIG. 2 patient
Source text: as §1, with “expected.” for “expected. Relacorilant was supplied as 100 mg capsules for oral dosing.”

pituitary macroadenomas = settings: following administration of relacorilant; cited from earlier work
ACTH and cortisol levels = settings: Cushing's syndrome patients; cited from earlier work
glucocorticoid receptor = glucocorticoid receptor (Homo sapiens, UniProt P04150); settings: HepG2 cells; cited from earlier work
Chain of glucocorticoid receptor (P04150 whole entry): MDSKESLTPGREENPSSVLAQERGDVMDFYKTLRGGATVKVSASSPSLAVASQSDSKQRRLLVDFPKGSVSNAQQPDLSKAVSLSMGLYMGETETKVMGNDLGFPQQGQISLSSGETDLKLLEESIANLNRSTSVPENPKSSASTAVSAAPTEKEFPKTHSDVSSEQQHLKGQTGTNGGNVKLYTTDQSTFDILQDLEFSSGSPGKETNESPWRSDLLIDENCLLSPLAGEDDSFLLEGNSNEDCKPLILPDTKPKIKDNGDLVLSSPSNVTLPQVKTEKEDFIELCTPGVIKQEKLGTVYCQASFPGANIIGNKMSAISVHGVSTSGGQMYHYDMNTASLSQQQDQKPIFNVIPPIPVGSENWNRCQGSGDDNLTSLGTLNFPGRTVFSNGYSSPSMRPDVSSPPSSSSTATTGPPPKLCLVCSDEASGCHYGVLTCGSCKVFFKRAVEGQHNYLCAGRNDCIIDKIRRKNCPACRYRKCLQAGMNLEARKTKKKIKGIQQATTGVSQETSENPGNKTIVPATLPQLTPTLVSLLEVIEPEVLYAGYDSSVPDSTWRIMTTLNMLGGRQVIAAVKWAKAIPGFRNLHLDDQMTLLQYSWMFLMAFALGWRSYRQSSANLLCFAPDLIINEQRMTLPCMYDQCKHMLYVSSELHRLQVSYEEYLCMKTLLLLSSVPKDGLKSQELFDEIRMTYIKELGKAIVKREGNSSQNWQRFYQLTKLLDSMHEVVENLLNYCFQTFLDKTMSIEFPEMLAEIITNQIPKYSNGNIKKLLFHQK

SMILES | size of adrenal adenoma (CT) ([1]; FIG. 2 patient, benign cortisol-secreting adenoma, daily relacorilant 100 up to 400 mg/day for almost two years, initial size 4.2 cm) | degenerative changes inside the adenoma (CT) ([1]; FIG. 2 patient, after almost two years of daily relacorilant, not present in initial scan) | maximum tumor dimension (CT measurement line) ([1]; FIG. 3 patient, at least 3 months daily relacorilant 100 up to 400 mg/day, 34.09 mm / 34.08 mm before treatment) | change in adrenal gland tumor size following treatment (in words) ([1]; individual patients, daily relacorilant up to 400 mg/day) | cortisol levels (in words) ([2]; after relacorilant treatment) | dexamethasone suppression test (DST) (in words) ([2]; after relacorilant treatment) | ACTH levels (in words) ([2]; at 6 months of relacorilant administration) | plasma ACTH level ([2]; since 6 months of relacorilant, undetectable before treatment) | pituitary macroadenoma size (in words) (pituitary macroadenomas) | ACTH levels (in words) (ACTH and cortisol levels) | cortisol levels (in words) (ACTH and cortisol levels) | activity of tyrosine aminotransferase (TAT) (in words) (glucocorticoid receptor)
Cn1cc(S(=O)(=O)N2CCC3=Cc4c(cnn4-c4ccc(F)cc4)C[C@]3(C(=O)c3cc(C(F)(F)F)ccn3)C2)cn1 [relacorilant, (R)-(1-(4-fluorophenyl)-6-((1-methyl-1H-pyrazol-4-yl)sulfonyl)-4,4a,5,6,7,8-hexahydro-1H-pyrazolo[3,4-g]isoquinolin-4a-yl)(4-(trifluoromethyl)pyridine-2-yl)methanone] | 3.1 cm | exhibits areas of degeneration; also recorded: developed fat droplets | 30.99 mm | reduced; also recorded: decreased | decreased | normalized | normalized | 15 to 18 pg/mL | shrink |  |  | 
CC#C[C@]1(O)CC[C@H]2[C@@H]3CCC4=CC(=O)CCC4=C3[C@@H](c3ccc(N(C)C)cc3)C[C@@]21C [mifepristone] |  |  |  |  |  |  |  |  |  | increased | increased | decreases
